Measured values: US9045426B2, “Method for producing 1,2-dihydropyridine-2-one compound” (EISAI R&D MANAGEMENT CO., LTD., priority 2004, dated 2015)

Assays:
[1] = test system: AMPA (alpha -amino-3-hydroxy-5-methyl-4-isoxazolepropionic acid) receptor; details: cited from earlier work
[2] = Chargeability (static potential of the powder after stirring); assay type: physicochemical; details: about 1 g stirred for 30 minutes with fluoroplastic-coated stirring bar
Method: About 1 g of respective compounds is weighed into a weighing bottle (diameter of 35 mm). A stifling bar [fluoroplastic (tetrafluoroethylene resin) coating; 20 mm] is placed in the bottle and after the lid is in place, the powders are stirred for 30 minutes. The lid is opened at the same time that stirring is stopped; and the static potential of the powder is measured using a static potential measuring instrument.
STATIRON-DZ3 manufactured by Shishido Electrostatic, Ltd.

[3] = Influence of change in humidity on Hydrate crystal (powder X-ray diffraction); assay type: physicochemical; details: 4 to 90 to 5% RH
Method: (§1) Influence of Change in Temperature and Humidity on Hydrate Crystal
(§2) Rigaku X-ray DTA system: RINT-2000 manufactured by Rigaku Corporation
(§3) Crystals obtained in Example 5 (Hydrate crystal) were ground in a mortar and then sampled on a 13-mm diameter glass plate. Measurement was carried out under the conditions below.
Measurement humidity was changed as follows in turn and powder X-ray diffraction patterns were measured at the respective humidities in sequence: […]

[4] = Physical stability in mixing operation in the presence of water or water-ethanol (1:1) mixed solution; assay type: physicochemical; details: room temperature, then dried at about 60° C.
Method: Physical Stability in Mixing-Operation in the Presence of Water or Water-Ethanol (1:1) Mixed Solution
About 150 mg of respective crystals are placed in an agate mortar, and the mixing operation is carried out at room temperature for a few minutes while the dropwise addition of water (or water-ethanol (1:1) mixed solution) continues.
Subsequently, respective crystals are dried at about 60° C. for 2 to 3 hours.

[5] = Lower explosion concentration limit (blown-up type dust explosion test); assay type: physicochemical; details: 24° C., humidity 49%, ignition discharge energy 10 J
From the text: (§4) Minimum Ignition Energy and Lower Explosion Concentration Limit
(§5) An appropriate amount of Hydrate crystal corresponding to a concentration was uniformly put on sample dish of blown-up type dust explosion test apparatus. 50 kPa of air was compressed in a 1.3 L pressure tank, and the air was introduced into a glass cylinder by opening of a solenoid operated valve to form dust clouds. A discharge electrode was supplied with energy after 0.1 seconds after the opening of the solenoid operated valve. The criterion of ignition is an arrival of flame at an ignition mark set 100 mm above the discharge electrode.
(2) Measurement Conditions for Lower Explosion Concentration Limit
(§6) Temperature of the measurement room: 24° C.
(§7) Popping pressure of compressed air: 50 kPa
(§8) Ignition start time: 0.1 sec
Repetition of ignition test: 5 times
Ignition discharge energy: 10 J
(§9) Blown-up type dust explosion test apparatus (Environmental Technology Co., Ltd. DES -10)

[6] = Influence of change in temperature on Hydrate crystal (powder X-ray diffraction); assay type: physicochemical; details: 30 to 100 to 30° C.; returns to Hydrate when the temperature was lowered
Method: as §1, §2, §3
Scanning range (2θ): 5 to 40°
Measurement temperature was changed as follows in turn and powder X-ray diffraction patterns were measured at the respective temperatures in sequence: 30→40→50→60→70→80→100→70→60→50→40 and 30° C.

[7] = Minimum ignition energy (blown-up type dust explosion test); assay type: physicochemical; details: 24° C., humidity 49%, dust concentration 1250 g/m^3
From the text: as §4, §5
(3) Measurement Conditions for Minimum Ignition Energy
as §6, §7, §8
Repetition of ignition test: 10 times
as §9

Compound	static potential of the powder (chargeability) [2]	change in crystal form during mixing operation (powder X-ray diffraction) [4]	also measured
N#Cc1ccccc1-c1cc(-c2ccccn2)cn(-c2ccccc2)c1=O [Compound (A), 3-(2-cyanophenyl)-5-(2-pyridyl)-1-phenyl-1,2-dihydropyridin-2-one]			antagonistic action against AMPA receptor [1]: significant antagonistic action
N#Cc1ccccc1-c1cc(-c2ccccn2)cn(-c2ccccc2)c1=O.O [Example 5, 3-(2-cyanophenyl)-5-(2-pyridyl)-1-phenyl-1,2-dihydropyridin-2-one hydrate]	0 V	no change in crystal form	humidity under which crystals stay Hydrate crystal [3]: ≥ 10 % RH; humidity under which Hydrate crystal changes to Anhydrous crystal form III ([3]; reversible): ≤ 10 % RH; Lower Explosion Concentration Limit [5]: 160-170 g/m^3; temperature at which Hydrate crystal transforms to Anhydrous crystal form III [6]: ≥ 60 °C; Minimum Ignition Energy [7]: 50 to 100 mJ
N#Cc1ccccc1-c1cc(-c2ccccn2)cn(-c2ccccc2)c1=O [Example 6, 3-(2-cyanophenyl)-5-(2-pyridyl)-1-phenyl-1,2-dihydropyridin-2-one]		no change in crystal form	
N#Cc1ccccc1-c1cc(-c2ccccn2)cn(-c2ccccc2)c1=O [Example 7, 3-(2-cyanophenyl)-5-(2-pyridyl)-1-phenyl-1,2-dihydropyridin-2-one]		no change in crystal form	
N#Cc1ccccc1-c1cc(-c2ccccn2)cn(-c2ccccc2)c1=O [Reference Example 1, 3-(2-cyanophenyl)-5-(2-pyridyl)-1-phenyl-1,2-dihydropyridin-2-one, reference compound]	70-100 V	underwent a change in crystal form	
